Measured values taken from paper PMC11595864, “Design, Synthesis, and Evaluation of Novel Thiazole-Containing Algicides Inspired by Bacillamide A” (Marine Drugs, 2024).
Values after ≈ are worked out from the molar mass of the structure shown. Read-outs that look alike come from different tables or passages of the source.

Tests used:
[1] = system: A. pacificum; assay: Growth-inhibition rate measurement at 50 mg/L, 24 h; type: cell-based, Alexandrium pacificum; settings: for inhibition at 50 µg/mL: Alexandrium pacificum, read-out: inhibition rate against A. pacificum
Description: (§1) P. minimum, A. pacificum, and S. costatum were purchased from Guangyu Biological Technology Co., Ltd. (Shanghai, China). The algae strain was cultured in F/2 medium ((12 h light: 12 h dark cycle), 20 ± 1 °C, 70 μmol m^−2 s^−1). Purchased algae were transferred to sterile conical flasks for culture; after the algae proliferation was stabilized, the expanded culture was next carried out following standard conditions.
(§2) The stock solutions of bacillamide A and different BDs were prepared in dimethyl sulfoxide (DMSO) with the requisition amount. […] The controls received the same volume of DMSO. The inhibitory activities of bacillamide A, different BDs, and positive controls were screened by 96 well microtiter plates at different concentrations. Inhibition ratios (IRs) of cupric sulfate (50 mg/L, positive control), bacillamide A (50 mg/L), and BDs (50 mg/L) were calculated on algae using Equation (1). (1) IR=Cc0-Cex/Cc0×100%
(§3) The CC0 and Cex, respectively, represent the algal densities of the control and experimental groups.

[2] = system: P. minimum; assay: as above; type: cell-based, Prorocentrum minimum; settings: for inhibition at 50 µg/mL: Prorocentrum minimum, read-out: inhibition rate against P. minimum
Description: as §1, §2, §3

[3] = system: A. pacificum; assay: Algicidal activity assay, EC50; type: cell-based, Alexandrium pacificum; settings: Mean ± SD, n = 3; for EC50: Alexandrium pacificum
Description: as §1
(§4) Copper sulfate and Diuron were used as the positive controls. EC50 values were calculated according to the equation of the quantity–effect relationship in Equation (2) using the Hill model of Graph Pad Prism software (8.0.2). (2) Y=Bottom+(Top-Bottom)/1+10^(Log EC50-X)×Hill Slope
(§5) The X and Y values represent the concentration (mg/L) and response values of the control and experimental groups, respectively. The Top, Bottom, and Hill Slope represent the maximum response, minimum response, and the curve slope, respectively. The EC50 represents half of the maximum effective concentration.

[4] = system: P. minimum; assay: Algicidal activity assay, EC50; type: cell-based, Prorocentrum minimum; settings: for EC50: Prorocentrum minimum, read-out: EC50 P. minimum
Description: as §1, §4, §5

[5] = system: S. costatum; assay: Algicidal activity assay, EC50; type: cell-based, Skeletonema costatum; settings: for EC50: Skeletonema costatum, read-out: EC50 S. costatum
Description: as §1, §4, §5

[6] = system: zebrafish; assay: Zebrafish acute toxicity assay; type: in vivo; settings: zebrafish
Description: Zebrafish acute toxicity of bacillamide A and synthesized BDs were evaluated at 0.1 mg/L, 1 mg/L, and 10 mg/L, respectively. Diuron and CuSO4 were used as positive controls. The commercial zebrafish (body length > 3.0 cm) were domesticated in aerated tap water for 24 h, fed once daily for seven consecutive days, and stopped being fed before the experiment.
4. Acute toxicity table S1.
Compound Concentration Survival percent Acute
aAccording to the Guide for Environmental Safety Assessment of Chemical Pesticides
4 groups and treated with different compounds for 96 h.

[7] = system: S. costatum; assay: ROS level (DCFH-DA fluorescent probe assay); type: cell-based, Skeletonema costatum; settings: 10 mg/L, 72 h
Description: (§6) P. minimum, S. costatum, and A. pacificum cells were cultured in F/2 medium. All flasks were cultivated under 12 h of light: 12 h of dark and 70 μmol m^−2 s^−1 at 20 ± 1 °C. […] Finally, the algal cells were collected and diluted in 6 mL of phosphate buffer (pH = 7.8). A small amount of quartz sand was added into the algal cells under ice bath. The obtained homogenate was next poured into a centrifuge tube and centrifuged at 5000 r/min for 25 min at 4 °C. The obtained supernatant was placed in the refrigerator at 4 °C for the next step experiment.
(§7) The reactive oxygen species (ROS) assay kit was purchased from SolarBio Co., Ltd., Beijing, China. The 2′,7′-dichlorodihydrofluorescein diacetate (DCFH-DA) could be oxidized by reactive oxygen or nitrogen species (ROS/RNS) to generate high fluorescent 2′,7′-dichlorofluoroscein (DCF). DCF could be detected by Cyto-FLEX flow cytometry.

[8] = system: P. minimum; assay: ROS level (DCFH-DA fluorescent probe assay); type: cell-based, Prorocentrum minimum; settings: 10 mg/L, 72 h
Description: as §6, §7

With `O=C(NCCc1ccccc1)c1csc(-c2ccccc2)n1` [Compound 7c] the inhibition at 50 µg/mL [1] was 70 to 95%, the inhibition at 50 µg/mL [2] was 74.7% and the EC50 [3] was 0.53 ± 0.32 µg/mL (≈ 1.72 µM). For the same compound, the EC50 ([4]; Mean ± SD, n = 3) was 3.38 ± 0.84 µg/mL (≈ 11 µM) and the EC50 ([5]; Mean ± SD, n = 3) was 0.24 ± 0.058 µg/mL (≈ 0.778 µM).

In the case of `CN(C)CCNC(=O)c1csc(-c2ccccc2)n1` [Compound 7d], the inhibition at 50 µg/mL [1] is reported as 70 to 95%, the EC50 [3] is reported as 2.02 ± 0.54 µg/mL (≈ 7.34 µM) and the EC50 ([4]; Mean ± SD, n = 3) is reported as 3.22 ± 0.39 µg/mL (≈ 11.7 µM). The EC50 ([5]; Mean ± SD, n = 3) was 0.77 ± 0.21 µg/mL (≈ 2.8 µM).

Compound `O=C(Nc1ccccc1)c1csc(-c2ccccc2)n1` [Compound 7e] has an inhibition at 50 µg/mL [1] of 70 to 95%, an EC50 [3] of 0.69 ± 0.07 µg/mL (≈ 2.46 µM) and an EC50 ([4]; Mean ± SD, n = 3) of 3.23 ± 0.39 µg/mL (≈ 11.5 µM). It also gave an EC50 ([5]; Mean ± SD, n = 3) of 1.1 ± 0.31 µg/mL (≈ 3.92 µM).

With `CC(C)(C)OC(=O)NCCNC(=O)c1csc(-c2ccccc2)n1` [Compound 7f] the “inhibition rate against A. pacificum” value [1] was “lost most of its algicidal activity”, the melting point was 162 to 163 °C and the “inhibition rate against P. minimum” value [2] was “lost most of its algicidal activity”.

For `NCCNC(=O)c1csc(-c2ccccc2)n1` [Compound 7g], the melting point was 173 to 174 °C, the inhibition at 50 µg/mL [2] was 76.9% and the EC50 [3] was 3.42 ± 0.13 µg/mL (≈ 13.8 µM). The EC50 ([4]; Mean ± SD, n = 3) was 2.02 ± 0.27 µg/mL (≈ 8.17 µM) and the EC50 ([5]; Mean ± SD, n = 3) was 2.28 ± 0.37 µg/mL (≈ 9.22 µM).

In the case of `O=S(=O)([O-])[O-].[Cu+2]` [CuSO4, cupric sulfate anhydrous, reference compound], the Survival percent ([6]; 0.1 mg/L, 0h) is reported as 100, the Survival percent ([6]; 0.1 mg/L, 24h) is reported as 100 and the Survival percent ([6]; 0.1 mg/L, 48h) is reported as 80. It also gave a Survival percent ([6]; 0.1 mg/L, 72h) of 73, a Survival percent ([6]; 0.1 mg/L, 96h) of 73 and a Survival percent ([6]; 1 mg/L, 0h) of 100. For the same compound, the Survival percent ([6]; 1 mg/L, 24h) was 50, the Survival percent ([6]; 1 mg/L, 48h) was 50 and the Survival percent ([6]; 1 mg/L, 72h) was 43. It also gave a Survival percent ([6]; 1 mg/L, 96h) of 43, a Survival percent ([6]; 10 mg/L, 0h) of 100 and a Survival percent ([6]; 10 mg/L, 24h) of 0. The Survival percent ([6]; 10 mg/L, 48h) was 0, the Survival percent ([6]; 10 mg/L, 72h) was 0 and the Survival percent ([6]; 10 mg/L, 96h) was 0. For the same compound, the “increase of ROS levels in S. costatum” value [7] was 7.7 fold, the “increase of ROS levels in P. minimum” value [8] was 9.6 fold and the “EC50 A. pacificum” value [3] was 2.34 ± 0.06 µg/mL. The “EC50 P. minimum” value ([4]; Mean ± SD, n = 3) was 3.61 ± 0.32 µg/mL and the “EC50 S. costatum” value ([5]; Mean ± SD, n = 3) was 3.12 ± 0.21 µg/mL.

`CN(C)C(=O)Nc1ccc(Cl)c(Cl)c1` [Diuron, reference compound] showed an EC50 [3] of 5.69 ± 0.46 µg/mL (≈ 24.4 µM), an EC50 [4] of 4.72 ± 0.41 µg/mL (≈ 20.2 µM) and an EC50 [5] of 4.32 ± 0.14 µg/mL (≈ 18.5 µM).
